Tested on: CD3-stimulated T cells
Assay: CD3 stimulation of T cells: metabolite titration curves, 3[H]-thymidin incorporation
Type: cell-based, human
Conditions: anti-CD3 antibody, 3 days
From the text: • (a) Allogeneic T-cell response. DCs were infected with recombinant IDO-adeno-GFP (DC-IDO-GFP), IDO-adeno (DC-IDO) or with control adenoviruses (DC-adeno) at a MOI (multiplicity of infection) up to 500 for 2 days. Lymphocytes (PBMCs) were separated from peripheral blood of healthy donors by density gradient centrifugation and typed for HLA antigens. Only HLA-DR-different responder lymphocytes were used for DC-induced stimulation. Native DCs only, lymphocytes only, native DCs + allogeneic lymphocytes, DC-IDO-GFP + allogeneic lymphoytes, DC-IDO + allogeneic lymphoytes, DC-adeno + allogeneic lymphocytes (each time 10^5 DC + 10^5 lymphocytes in 0.2ml medium) were cultured in RPMI 1640 medium (Gibco BRL Life Technologies GmbH, Eggenstein, Germany) with 10% fetal calf serum (FCS) (final tryptophan concentration 5.25 mg/l = 25.69 uM) and Penicillin G/Streptomycin. […] In order to verify whether IDO expression or adenovirus infection harm the DCs, 10^5 cells were infected with IDO-adeno-GFP, IDO-adenovirus, or adenovirus only at a stepwise decreasing MOI (500, 250, 125, ........ 3.9) and cell viability was measured in FACS following double staining with 7-AAD and anti-CD83 antibody-PE. The percentage of dead cells never exceeded 30% for any MOI following IDO-adeno-GFP- or IDO-adeno-infection and 40% following adenovirus(control)-infection. Moreover, these values were not higher than those of native DCs cultured for the same period of time. The experiment was repeated using ethidium bromide or trypan blue staining with virtually the same result. […] Peripheral blood lymphocytes were cultured (10^5 cells/well) in RPMI 1640 (10% FCS) with anti CD3 monoclonal antibody (Ortho Diagnostic Systems Inc., Raritan, NJ) (final dilution 1:200). […] Kynurenine, 3-hydroxykynurenine, anthranilic acid, 3-hydroxyanthranilic acid, and quinolinic acid (Sigma-Aldrich Chemie GmbH, Taufkirchen, Germany)(for all substances purity>98%) were dissolved in RPMI 1640 and added to cell cultures at various concentrations. In an other experiment, to determine whether the metabolites have an additive effect, equal concentrations of the compounds were mixed and added to the cultures. […] Positive controls consisted of CD3-stimulated cells without metabolites and negative controls of unstimulated cells. • (d) Restimulation of suppressed T cells. Lymphocytes (10^5 cells/well) were cultured in RPMI 1640 (10% FCS) with anti-CD3 monoclonal antibody (final dilution 1:200) and kynurenine (dilution series). […] Controls consisted of cells prestimulated with anti-CD3 but not pretreated with kynurenine. In an other restimulation experiment lymphocytes were stimulated with allogeneic DCs as described, in the presence (47-1500µM) or absence of kynurenine. Control cultures contained DCs or lymphocytes only. After 5 days the cells were extensively washed, and restimulated with an identical number of DCs derived from the same donor or from third party donors. […] In order to define the concentration of tryptophan which reduces T- lymphocyte proliferation in our test system, 10^5 lymphocytes were incubated in tryptophan-free RPMI 1640 medium (Gibco BRL Life Technologies) with or without 10% FCS, stimulated with anti-CD3 monoclonal antibody, and various amounts (0-38µM) of tryptophan were added. Unimpaired proliferation was observed down to 0.30µM (medium with FCS) and 1 .20µM (without FCS). Complete inhibition was not obtained at any concentration (positive control 100% proliferation; maximal suppression in medium with FCS: approx. 66% and without FCS: approx. 33%). All cell cultures were done in triplicate.
All tests were carried out in triplicate and results are given as mean +standard deviation. […] Thereafter, the concentration of substance giving 50% proliferation was calculated by regression.

Compound: Nc1ccccc1C(=O)CC(N)C(=O)O (centres unmarked) [kynurenine]
- IC50 (Homo sapiens, T-cell, 72 h, single substance, read-out: I50 of proliferation of CD3-stimulated T cells): 553 µM
- suppression of T cell response (in words): suppressed proliferation

Source: patent publication EP1369114A1, “Use of tryptophan metabolites as pharmaceutical agents” (Terness, Peter, Priv. Doz. Dr., priority 2002, dated 2003)
